What was measured:
MOPr = MOPr (Mus musculus, UniProt P42866); format: cell-based; details: GRK2-positive cells, saturating concentrations
mouse MOPr (mMOPr) = mouse MOPr (mMOPr) (Mus musculus, UniProt P42866); test: GGIRK activation in AtT20 cells expressing mMOPr, perforated patch; format: cell-based
human MOPr (hMOPr) = human MOPr (hMOPr) (Homo sapiens, UniProt P35372); test: Inhibition of forskolin-stimulated cAMP formation in hMOPr HEK cells; format: cell-based; details: 10 µM
[1] = target: human μ-opioid receptor (hMOPr) (human) (UniProt P35372); test: radioligand binding
[2] = target: human κ-opioid receptor (hKOPr) (human) (UniProt P41145); test: radioligand binding
[3] = target: human δ-opioid receptor (hDOPr) (human) (UniProt P41143); test: radioligand binding

Sequence of human MOPr (hMOPr) (P35372 whole entry): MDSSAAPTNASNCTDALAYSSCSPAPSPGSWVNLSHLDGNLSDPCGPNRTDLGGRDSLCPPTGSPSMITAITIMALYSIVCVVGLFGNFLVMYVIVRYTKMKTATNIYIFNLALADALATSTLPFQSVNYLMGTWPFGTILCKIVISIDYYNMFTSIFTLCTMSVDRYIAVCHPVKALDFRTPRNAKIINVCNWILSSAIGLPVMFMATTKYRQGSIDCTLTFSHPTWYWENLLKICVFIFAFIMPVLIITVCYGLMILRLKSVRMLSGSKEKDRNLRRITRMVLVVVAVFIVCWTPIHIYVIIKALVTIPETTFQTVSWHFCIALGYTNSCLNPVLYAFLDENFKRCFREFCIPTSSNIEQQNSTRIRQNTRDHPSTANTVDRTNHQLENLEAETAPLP

| Molecule | Inhibition of cAMP formation / MOPr activity, in words (human MOPr (hMOPr)) | Ki [1] [nM] | further results |
| --- | --- | --- | --- |
| COc1ccsc1CNCC[C@@]1(c2ccccn2)CCOC2(CCCC2)C1 [oliceridine] | – | – | MOPr internalization with overexpressed GRK2-YFP and β-arrestin 2-HA, in words (MOPr): clear internalization signals; GGIRK activation in AtT20 cells, in words (mouse MOPr (mMOPr)): significantly less efficaciously than either morphine or bilorphin |
| H-FVvf-NH2 [1g] | generally inactive | – | – |
| H-FVvf-OH [1c] | generally inactive | – | – |
| H-fVvF-NH2 [1f] | generally inactive | – | – |
| H-fVvF-OH [1b] | generally inactive | – | – |
| H-fvVF-OH [1d] | generally inactive | – | – |
| bilaid A (FvVf-OH) (peptide) | – | 3100 | – |
| bilaid C (YvVf-OH) (peptide) | – | 210 | – |
| bilorphin ([Dmt]vVf-NH2) (peptide) | – | – | Ki [2]: 770 nM; Ki [3]: 190 nM |
| FVVF (D-Val at 2, D-Phe at 4; C-terminal amide) [C-terminally amidated bilaid A (1e)] | – | 750 | – |

From publication PMC6825270 (Proceedings of the National Academy of Sciences of the …, 2019)
